Experimental data: US20160102363A1, “METHODS AND COMPOSITIONS FOR PREDICTING THERAPEUTIC EFFICACY OF KINASE INHIBITORS IN PATIENTS WITH MYELODYSPLASTIC SYNDROME OR RELATED DISORDERS” (ONCONOVA THERAPEUTICS, INC., priority 2013, published 2016)

Tested on: MDS patients
Test: Clinical hematological response of MDS patients treated with Rigosertib
Type: in vivo, human
Details: number of patients of 32 MDS patients
Description: As used herein, “response” is defined by standard clinical criteria, importantly including amelioration of transfusion-dependent anemia, which is a major hallmark of myelodysplastic syndromes (MDS).
This study sought to identify DNA methylation markers that can predict the therapeutic response to a different, and an even more widely pertinent, class of anti-cancer drugs, namely broad-specificity tyrosine kinase inhibitors (TKI's) or a broad specificity kinase inhibitors. As used herein, “response” is defined by standard clinical criteria, importantly including amelioration of transfusion-dependent anemia, which is a major hallmark of myelodysplastic syndromes (MDS).
Pre-therapy bone marrow mononuclear cells from 32 patients were analyzed using the Illumina 450K methylation array platform.
In summary, seven (7) of 32 MDS patients had complete response or CR (Transfusion independence (TI)+increase in hemoglobin (Hb)>2 g/dL), ten (10) had partial response or PR (TI without Hb increase) and fifteen (15) had no response or NR. […] Bisulfite sequencing (which allows quantification of multiple consecutive CpGs in an amplicon) of several differentially methylated loci confirmed the Illumina 450K data.

In the case of `COc1cc(OC)c(/C=C/S(=O)(=O)Cc2ccc(OC)c(NCC(=O)[O-])c2)c(OC)c1.[Na+]` [Rigosertib], the “complete response or CR (Transfusion independence (TI)+increase in hemoglobin (Hb)>2 g/dL)” value is reported as 7, the “no response or NR” value is reported as 15 and the “partial response or PR (TI without Hb increase)” value is reported as 10.
